According to the NIST ThermoML archive (doi:10.1021/je700350b):
± gives the expanded uncertainty stated by the source.

What was measured:
[1] = 101.33 kPa, Liquid, Vibrating tube method
[2] = xn = mol fraction of the nth substance listed; conditions: x2 = 0; for surface tension liquid-gas: Ring tensiometer; for viscosity: 101.33 kPa, Liquid

`CCN(CC)CCO` [(diethylamino)ethanol] showed a mass density ([1]; 293.15 K) of 884.14 ± 0.3 kg/m3 and a mass density ([1]; 298.15 K) of 879.5 ± 0.3 kg/m3.
`O` [water] + CCN(CC)CCO gave a surface tension liquid-gas ([2]; 283.15 K) of 73.74 ± 2.3 mN/m, a surface tension liquid-gas ([2]; 288.15 K) of 73.14 ± 2.2 mN/m and a surface tension liquid-gas ([2]; 293.15 K) of 72.59 ± 2.2 mN/m. It also gave a surface tension liquid-gas ([2]; 298.15 K) of 71.84 ± 2.2 mN/m, a viscosity ([2]; 298.15 K) of 0.89 ± 0.014 mPa·s and a surface tension liquid-gas ([2]; 303.15 K) of 71.2 ± 0.98 mN/m. It also gave a viscosity ([2]; 303.15 K) of 0.794 ± 0.013 mPa·s.
